Experimental data from patent US11208412B2 (DAEGU-GYEONGBUK MEDICAL INNOVATION FOUNDATION, priority 2017, dated 2021).
Like-named read-outs stand apart in the source and are kept apart here.

Assays:
Assay in all cases: Kinase selectivity, DiscoverX scanMAX Kinase assay panel (% control)
Format in all cases: binding
[1] = target: T1, kinases of the scanMAX Kinase assay panel (Homo sapiens, UniProt P42336, C420R); settings: PIK3CA(C420R); 1 uM
T1 construct: purchased DiscoverX Co. (contract measurement) scanMAX Kinase assay panel
T1 sequence (P42336 whole entry C420R): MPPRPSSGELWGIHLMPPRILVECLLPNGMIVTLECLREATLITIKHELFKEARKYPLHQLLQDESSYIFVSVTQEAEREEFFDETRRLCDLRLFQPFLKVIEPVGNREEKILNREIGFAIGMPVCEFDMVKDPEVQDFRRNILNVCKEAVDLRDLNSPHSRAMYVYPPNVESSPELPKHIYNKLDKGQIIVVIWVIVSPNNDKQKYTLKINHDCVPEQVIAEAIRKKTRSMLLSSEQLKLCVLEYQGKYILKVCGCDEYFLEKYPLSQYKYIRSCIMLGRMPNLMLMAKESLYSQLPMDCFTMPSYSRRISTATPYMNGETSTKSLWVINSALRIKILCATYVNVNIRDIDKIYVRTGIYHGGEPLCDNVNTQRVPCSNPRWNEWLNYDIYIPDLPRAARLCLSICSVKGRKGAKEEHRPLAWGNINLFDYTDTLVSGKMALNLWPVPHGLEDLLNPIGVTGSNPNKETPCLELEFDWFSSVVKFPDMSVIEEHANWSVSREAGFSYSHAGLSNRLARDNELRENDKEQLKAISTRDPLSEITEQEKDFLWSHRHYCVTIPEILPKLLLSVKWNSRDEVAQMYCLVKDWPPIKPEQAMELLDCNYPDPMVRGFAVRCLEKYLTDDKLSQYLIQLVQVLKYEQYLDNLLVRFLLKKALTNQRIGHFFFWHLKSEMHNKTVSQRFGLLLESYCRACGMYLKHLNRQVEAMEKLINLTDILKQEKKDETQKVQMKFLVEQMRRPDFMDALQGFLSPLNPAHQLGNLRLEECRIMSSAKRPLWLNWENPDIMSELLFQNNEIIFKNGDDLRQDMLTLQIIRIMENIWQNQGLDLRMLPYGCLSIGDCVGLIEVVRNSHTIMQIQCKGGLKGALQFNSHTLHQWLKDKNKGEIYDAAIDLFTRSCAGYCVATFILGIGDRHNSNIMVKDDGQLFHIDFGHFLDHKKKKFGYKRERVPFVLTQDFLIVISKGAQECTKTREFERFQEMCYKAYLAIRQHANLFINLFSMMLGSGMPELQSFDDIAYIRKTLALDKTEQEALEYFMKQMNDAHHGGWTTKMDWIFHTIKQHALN
Procedure, shortened: (§1)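 Compounds tested at 1 uM against the scanMAX kinase panel. Signal expressed as % control = (compound − positive control)/(DMSO negative control − positive control) × 100, where positive control = 0% and DMSO = 100%; below 35% counted as activity on that kinase.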

[2] = target: T2, kinases of the scanMAX Kinase assay panel (Homo sapiens, UniProt O14757); settings: CHEK1; 1 uM
T2 construct: purchased DiscoverX Co. (contract measurement) scanMAX Kinase assay panel
T2 sequence (O14757 1-476): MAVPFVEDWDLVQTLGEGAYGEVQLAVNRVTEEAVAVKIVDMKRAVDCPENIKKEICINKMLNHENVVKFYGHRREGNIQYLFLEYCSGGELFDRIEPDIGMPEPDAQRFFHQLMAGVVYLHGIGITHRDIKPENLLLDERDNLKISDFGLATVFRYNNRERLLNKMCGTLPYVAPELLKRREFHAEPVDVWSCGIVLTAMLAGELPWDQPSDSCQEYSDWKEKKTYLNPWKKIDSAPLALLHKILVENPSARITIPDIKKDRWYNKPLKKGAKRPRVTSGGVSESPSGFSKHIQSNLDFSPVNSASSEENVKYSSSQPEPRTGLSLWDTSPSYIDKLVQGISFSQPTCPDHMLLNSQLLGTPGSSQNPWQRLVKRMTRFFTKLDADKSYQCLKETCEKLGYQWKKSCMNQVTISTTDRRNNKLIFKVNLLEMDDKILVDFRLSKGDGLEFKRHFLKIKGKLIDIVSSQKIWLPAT
Procedure, shortened: as §1

[3] = target: T3, kinases of the scanMAX Kinase assay panel (Homo sapiens, UniProt Q9UQB9); settings: AURKC; 1 uM
T3 construct: purchased DiscoverX Co. (contract measurement) scanMAX Kinase assay panel
T3 sequence (Q9UQB9 1-309): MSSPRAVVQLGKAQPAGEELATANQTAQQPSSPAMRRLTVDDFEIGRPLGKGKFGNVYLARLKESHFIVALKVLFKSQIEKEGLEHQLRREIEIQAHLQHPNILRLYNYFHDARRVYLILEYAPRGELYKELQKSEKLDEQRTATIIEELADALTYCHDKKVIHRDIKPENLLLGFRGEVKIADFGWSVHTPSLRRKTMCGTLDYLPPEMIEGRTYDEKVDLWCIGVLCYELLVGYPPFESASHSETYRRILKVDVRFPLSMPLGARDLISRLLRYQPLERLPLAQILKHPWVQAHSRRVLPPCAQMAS
Procedure, shortened: as §1

[4] = target: T4, kinases of the scanMAX Kinase assay panel (Homo sapiens, UniProt O75676); settings: 1 uM in DMSO
T4 construct: purchased DiscoverX Co. (contract measurement) scanMAX Kinase assay panel
Procedure, shortened: as §1

[5] = target: T5, kinases of the scanMAX Kinase assay panel (Homo sapiens, UniProt P37173); settings: kinase TGFBR2; 1 uM in DMSO
T5 construct: purchased DiscoverX Co. (contract measurement) scanMAX Kinase assay panel
Procedure, shortened: as §1

[6] = target: T6, kinases of the scanMAX Kinase assay panel (Homo sapiens, UniProt Q16620); settings: kinase TRKB; 1 uM in DMSO
T6 construct: purchased DiscoverX Co. (contract measurement) scanMAX Kinase assay panel
T6 sequence (Q16620 32-822): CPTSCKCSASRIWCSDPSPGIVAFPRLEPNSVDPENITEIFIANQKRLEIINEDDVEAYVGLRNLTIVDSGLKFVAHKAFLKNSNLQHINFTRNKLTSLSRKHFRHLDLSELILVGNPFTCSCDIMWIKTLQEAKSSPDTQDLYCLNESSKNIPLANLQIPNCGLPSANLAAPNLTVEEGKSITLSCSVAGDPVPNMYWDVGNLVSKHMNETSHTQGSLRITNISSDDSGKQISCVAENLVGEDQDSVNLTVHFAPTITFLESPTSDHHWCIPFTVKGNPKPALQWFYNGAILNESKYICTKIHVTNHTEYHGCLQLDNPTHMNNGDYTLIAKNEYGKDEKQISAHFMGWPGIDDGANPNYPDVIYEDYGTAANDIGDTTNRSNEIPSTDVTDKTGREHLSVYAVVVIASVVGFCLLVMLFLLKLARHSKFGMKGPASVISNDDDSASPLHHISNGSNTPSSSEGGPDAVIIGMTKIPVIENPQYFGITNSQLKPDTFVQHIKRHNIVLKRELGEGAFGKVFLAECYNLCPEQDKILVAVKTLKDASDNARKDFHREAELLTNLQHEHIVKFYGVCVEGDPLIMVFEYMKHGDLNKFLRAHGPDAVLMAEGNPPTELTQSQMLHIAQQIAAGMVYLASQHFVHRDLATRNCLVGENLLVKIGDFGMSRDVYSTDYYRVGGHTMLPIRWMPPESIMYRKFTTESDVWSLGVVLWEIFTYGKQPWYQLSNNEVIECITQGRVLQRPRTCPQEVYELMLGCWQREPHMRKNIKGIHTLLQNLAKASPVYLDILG
Procedure, shortened: as §1

[7] = target: T7, kinases of the scanMAX Kinase assay panel (Homo sapiens, UniProt P00519, F317I); settings: 1 uM
T7 construct: purchased DiscoverX Co. (contract measurement) scanMAX Kinase assay panel
T7 sequence (P00519 whole entry F317I): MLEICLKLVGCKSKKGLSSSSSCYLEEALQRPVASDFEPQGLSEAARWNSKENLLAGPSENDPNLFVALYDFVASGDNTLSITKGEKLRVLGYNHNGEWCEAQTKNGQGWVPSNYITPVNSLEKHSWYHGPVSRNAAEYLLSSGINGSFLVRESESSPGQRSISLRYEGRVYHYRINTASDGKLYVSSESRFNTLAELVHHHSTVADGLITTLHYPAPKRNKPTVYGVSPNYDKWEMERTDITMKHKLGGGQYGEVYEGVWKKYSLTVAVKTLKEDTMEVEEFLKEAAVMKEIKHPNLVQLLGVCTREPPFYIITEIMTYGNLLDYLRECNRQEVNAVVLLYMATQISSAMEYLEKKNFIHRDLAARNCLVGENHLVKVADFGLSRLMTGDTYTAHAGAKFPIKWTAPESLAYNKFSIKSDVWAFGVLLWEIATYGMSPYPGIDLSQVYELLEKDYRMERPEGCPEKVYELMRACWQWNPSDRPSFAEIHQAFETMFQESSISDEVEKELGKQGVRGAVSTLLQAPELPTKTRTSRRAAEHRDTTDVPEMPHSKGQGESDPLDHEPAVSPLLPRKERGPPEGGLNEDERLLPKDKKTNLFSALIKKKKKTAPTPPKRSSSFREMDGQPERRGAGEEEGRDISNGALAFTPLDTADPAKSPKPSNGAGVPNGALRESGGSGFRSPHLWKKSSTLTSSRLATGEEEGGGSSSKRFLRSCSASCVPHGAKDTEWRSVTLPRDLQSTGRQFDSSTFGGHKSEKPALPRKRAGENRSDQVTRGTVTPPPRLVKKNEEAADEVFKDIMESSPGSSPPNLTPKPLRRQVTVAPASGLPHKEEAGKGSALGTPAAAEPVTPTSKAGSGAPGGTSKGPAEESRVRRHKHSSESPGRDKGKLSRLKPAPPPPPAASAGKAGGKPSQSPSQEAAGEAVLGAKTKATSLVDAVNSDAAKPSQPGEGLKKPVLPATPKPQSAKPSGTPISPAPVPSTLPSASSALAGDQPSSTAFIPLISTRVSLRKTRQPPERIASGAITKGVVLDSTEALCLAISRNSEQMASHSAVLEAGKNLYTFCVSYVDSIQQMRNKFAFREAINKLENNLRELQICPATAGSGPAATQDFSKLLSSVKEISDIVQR
Procedure, shortened: as §1

[8] = target: T8, kinases of the scanMAX Kinase assay panel (Homo sapiens, UniProt Q13164); settings: ERK5; 1 uM
T8 construct: purchased DiscoverX Co. (contract measurement) scanMAX Kinase assay panel
T8 sequence (Q13164 whole entry): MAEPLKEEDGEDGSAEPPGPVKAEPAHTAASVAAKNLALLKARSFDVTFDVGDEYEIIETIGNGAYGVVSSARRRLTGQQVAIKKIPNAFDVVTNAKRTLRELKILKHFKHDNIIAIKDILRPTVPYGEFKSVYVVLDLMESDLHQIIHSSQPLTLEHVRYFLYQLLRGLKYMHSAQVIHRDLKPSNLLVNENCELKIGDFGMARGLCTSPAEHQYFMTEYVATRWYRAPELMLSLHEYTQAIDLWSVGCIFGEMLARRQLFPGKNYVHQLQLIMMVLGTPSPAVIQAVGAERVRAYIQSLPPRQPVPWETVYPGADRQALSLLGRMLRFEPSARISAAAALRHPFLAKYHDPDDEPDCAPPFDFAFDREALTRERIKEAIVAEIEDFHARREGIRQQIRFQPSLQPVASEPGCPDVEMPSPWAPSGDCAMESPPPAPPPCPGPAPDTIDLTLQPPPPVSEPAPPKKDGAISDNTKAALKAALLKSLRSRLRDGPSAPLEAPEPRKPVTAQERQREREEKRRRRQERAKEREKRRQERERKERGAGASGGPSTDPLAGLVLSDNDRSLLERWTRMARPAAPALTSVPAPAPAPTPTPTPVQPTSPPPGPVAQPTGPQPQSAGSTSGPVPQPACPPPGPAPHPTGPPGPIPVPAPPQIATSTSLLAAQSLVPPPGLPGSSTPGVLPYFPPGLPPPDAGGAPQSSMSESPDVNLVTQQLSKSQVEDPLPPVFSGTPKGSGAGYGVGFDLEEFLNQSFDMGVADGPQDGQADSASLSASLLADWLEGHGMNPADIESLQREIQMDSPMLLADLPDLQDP
Procedure, shortened: as §1

[9] = target: T9, kinases of the scanMAX Kinase assay panel (Homo sapiens, UniProt Q52WX2); settings: kinase SBK1; 1 uM in DMSO
T9 construct: purchased DiscoverX Co. (contract measurement) scanMAX Kinase assay panel
Procedure, shortened: as §1

[10] = target: T10, kinases of the scanMAX Kinase assay panel (Homo sapiens, UniProt Q13043); settings: MST1; 1 uM
T10 construct: purchased DiscoverX Co. (contract measurement) scanMAX Kinase assay panel
T10 sequence (Q13043 1-487): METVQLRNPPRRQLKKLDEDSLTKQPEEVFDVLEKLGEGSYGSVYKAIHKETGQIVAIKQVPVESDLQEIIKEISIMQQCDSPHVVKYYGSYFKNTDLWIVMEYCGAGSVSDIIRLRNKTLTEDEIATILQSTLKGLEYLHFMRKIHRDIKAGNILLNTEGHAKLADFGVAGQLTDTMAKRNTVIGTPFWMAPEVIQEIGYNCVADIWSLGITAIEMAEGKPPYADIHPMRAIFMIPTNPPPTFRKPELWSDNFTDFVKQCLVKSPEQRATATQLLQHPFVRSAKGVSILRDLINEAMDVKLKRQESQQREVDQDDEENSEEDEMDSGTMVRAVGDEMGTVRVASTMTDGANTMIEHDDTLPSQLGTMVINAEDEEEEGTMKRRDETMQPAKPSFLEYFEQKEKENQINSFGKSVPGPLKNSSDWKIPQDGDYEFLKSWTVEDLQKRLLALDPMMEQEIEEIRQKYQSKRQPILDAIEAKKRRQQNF
Procedure, shortened: as §1

[11] = target: T11, kinases of the scanMAX Kinase assay panel (Homo sapiens, UniProt Q08345); settings: DDR1; 1 uM
T11 construct: purchased DiscoverX Co. (contract measurement) scanMAX Kinase assay panel
Procedure, shortened: as §1

[12] = target: T12, kinases of the scanMAX Kinase assay panel (Homo sapiens, UniProt Q9UM73, C1156Y); settings: ALK(C1156Y); 1 uM
T12 construct: purchased DiscoverX Co. (contract measurement) scanMAX Kinase assay panel
Procedure, shortened: as §1

[13] = target: T13, kinases of the scanMAX Kinase assay panel (Homo sapiens, UniProt Q99558); settings: NIK; 1 uM
T13 construct: purchased DiscoverX Co. (contract measurement) scanMAX Kinase assay panel
T13 sequence (Q99558 whole entry): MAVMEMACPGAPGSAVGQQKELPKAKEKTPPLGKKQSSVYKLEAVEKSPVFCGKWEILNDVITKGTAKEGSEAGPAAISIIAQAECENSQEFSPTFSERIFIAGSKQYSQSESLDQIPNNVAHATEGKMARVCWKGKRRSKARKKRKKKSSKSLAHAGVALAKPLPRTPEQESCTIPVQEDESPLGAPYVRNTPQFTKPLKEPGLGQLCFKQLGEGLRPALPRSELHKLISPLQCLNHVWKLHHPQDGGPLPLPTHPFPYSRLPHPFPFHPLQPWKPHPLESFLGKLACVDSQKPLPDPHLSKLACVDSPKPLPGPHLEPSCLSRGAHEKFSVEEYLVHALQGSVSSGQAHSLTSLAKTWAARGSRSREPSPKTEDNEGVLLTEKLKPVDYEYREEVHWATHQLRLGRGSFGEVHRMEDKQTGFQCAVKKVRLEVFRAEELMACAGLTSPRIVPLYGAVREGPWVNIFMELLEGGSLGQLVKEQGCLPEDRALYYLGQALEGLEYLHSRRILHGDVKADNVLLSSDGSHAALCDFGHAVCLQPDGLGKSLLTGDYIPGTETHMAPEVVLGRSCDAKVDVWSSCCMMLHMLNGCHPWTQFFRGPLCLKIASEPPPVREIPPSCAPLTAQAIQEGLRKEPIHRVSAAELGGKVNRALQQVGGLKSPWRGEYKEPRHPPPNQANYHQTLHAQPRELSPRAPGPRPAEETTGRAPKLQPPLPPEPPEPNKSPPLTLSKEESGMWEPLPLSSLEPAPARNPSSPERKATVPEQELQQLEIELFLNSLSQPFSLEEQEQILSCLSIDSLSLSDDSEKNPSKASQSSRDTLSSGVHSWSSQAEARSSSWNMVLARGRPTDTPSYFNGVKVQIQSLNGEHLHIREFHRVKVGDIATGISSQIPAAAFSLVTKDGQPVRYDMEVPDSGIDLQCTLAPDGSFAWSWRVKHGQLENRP
Procedure, shortened: as §1

[14] = kinase RPS6KA4(Kin.Dom.1-N-terminal), read-out: % control, RPS6KA4(Kin.Dom.1-N-terminal)
[15] = kinase RPS6KA4(Kin.Dom.2-C-terminal), read-out: % control, RPS6KA4(Kin.Dom.2-C-terminal)

Structure (SMILES)	remaining binding at 1 µM [1] [%]	remaining binding at 1 µM [2] [%]	remaining binding at 1 µM [3] [%]	remaining binding at 1 µM [4, 14] [%]	remaining binding at 1 µM [4, 15] [%]	remaining binding at 1 µM [5] [%]	remaining binding at 1 µM [6] [%]	remaining binding at 1 µM ([7]; ABL1(F317I)-nonphosphorylated) [%]	remaining binding at 1 µM ([7]; ABL1(F317I)-phosphorylated) [%]	remaining binding at 1 µM [8] [%]	remaining binding at 1 µM [9] [%]	remaining binding at 1 µM [10] [%]	remaining binding at 1 µM [11] [%]	remaining binding at 1 µM [12] [%]	remaining binding at 1 µM [13] [%]
CC1(Nc2nc(Nc3cnn([C@H]4CCN(C5COC5)C[C@@H]4F)c3Cl)nc3[nH]cc(C#N)c23)CC1 [Example 52, 2-((5-chloro-1-((3S,4S)-3-fluoro-1-(oxetane-3-yl)piperidine-4-yl)-1H-pyrazole-4-yl)amino)((1-methylcyclopropyl)amino)-7H-pyrrolo[2,3-d]pyrimidine-5-carbonitrile]	63	26	7.1	68	2.2	100	7.5	25	7.6	13	21	17	50	0.8	7.4
CNc1nc(Nc2ccc(C(=O)N3CCOCC3)cc2OC)nc2[nH]cc(C#N)c12 [Example 1, 2-((2-methoxy-4-(morpholine-4-carbonyl)phenyl)amino)-4-(methylamino)-7H-pyrrolo[2,3-d]pyrimidine-5-carbonitrile]	94	85	100	92	0.2	82	61	99	54	72	72	93	94	9.3	3.7
CCNc1nc(Nc2ccc(C(=O)N3CCC(N4CCOCC4)CC3)cc2OC)nc2[nH]cc(C(F)(F)F)c12 [Example 104, (4-((4-(ethylamino)-5-(trifluoromethyl)-7H-pyrrolo[2,3-d]pyrimidine-2-yl)amino)-3-methoxyphenyl)(4-morpholinopiperidine-1-yl)methanone]	91	100	100	100	18	96	100	56	29	18	100	100	100	16	16
